Tested on: 84 genes related to inflammatory and autoimmune processes
Test: Mouse Inflammatory Response and Autoimmunity PCR Array, whole brain
Format: in vivo
Conditions: brain 24 h
Method: Frozen, pulverized whole brain tissue was processed for RNA extraction from a separate cohort of treated and untreated injured animals on days 1 post-injury(CN-105, n = 4; vehicle, n = 3; Control(sham-operated), n = 3). Total RNA was extracted from frozen, pulverized whole brain tissue using RNeasy Lipid Tissue Mini Kit(Qiagen, Valencia, CA). RNA quantity and quality was assessed with the NanoDrop ND-1000 spectrophotometer(NanoDrop Technologies, Inc., Wilmington, DE) and by agarose gel electrophoresis. Only samples with a 260/280 ratio between 1.9–2.1, and a 260/230 ratio greater than 2.0, were further processed. First strand complementary DNA(cDNA) was generated from 2 μg total RNA using the RT[2] First strand kit(SABiosciences, Frederick, MD.)
Gene expression was measured using the Mouse Inflammatory Response and Autoimmunity PCR Array(SABiosciences, Frederick, MD), which profiles the expression of 84 genes related to inflammatory and autoimmune processes. RT-PCR was performed according to manufacturer’s instructions Quality of the cDNA and PCR efficiency was verified by housekeeping genes and RT-PCR controls included in the PCR Array.
Raw RT-PCR data were analyzed using the Web-Based PCR Array Data Analysis software(SABiosciences). ΔCt values and ΔΔCt - based fold-change were calculated from raw threshold cycle data, using beta-actin and glyceraldehyde 3-phosphate dehydrogenase(GAPDH) as internal standards for normalization. Fold changes were then normalized against sham-operated controls.

Ac-VSRRR-amide [CN-105]
Il22ra2 ΔCt value, S-CN-105 (sham + CN-105 0.05 mg/kg iv): 1.1E − 04
Il22 ΔCt value, S-CN-105 (sham + CN-105 0.05 mg/kg iv): 4.7E − 04
Il23a ΔCt value, S-CN-105 (sham + CN-105 0.05 mg/kg iv): 8.0E − 05
Il23r ΔCt value, S-CN-105 (sham + CN-105 0.05 mg/kg iv): 1.5E − 04
Itgb2 ΔCt value, S-CN-105 (sham + CN-105 0.05 mg/kg iv): 1.3E − 02
Kng1 ΔCt value, S-CN-105 (sham + CN-105 0.05 mg/kg iv): 1.4E − 05
Lta ΔCt value, S-CN-105 (sham + CN-105 0.05 mg/kg iv): 2.6E − 04
Ltb ΔCt value, S-CN-105 (sham + CN-105 0.05 mg/kg iv): 1.0E − 03
Ly96 ΔCt value, S-CN-105 (sham + CN-105 0.05 mg/kg iv): 7.2E − 03
Myd88 ΔCt value, S-CN-105 (sham + CN-105 0.05 mg/kg iv): 1.1E − 03
Nfatc3 ΔCt value, S-CN-105 (sham + CN-105 0.05 mg/kg iv): 2.1E − 02
Nfkb1 ΔCt value, S-CN-105 (sham + CN-105 0.05 mg/kg iv): 3.1E − 02
Nos2 ΔCt value, S-CN-105 (sham + CN-105 0.05 mg/kg iv): 8.9E − 05
Nr3c1 ΔCt value, S-CN-105 (sham + CN-105 0.05 mg/kg iv): 4.0E − 01
Ripk2 ΔCt value, S-CN-105 (sham + CN-105 0.05 mg/kg iv): 1.1E − 02
Tirap ΔCt value, S-CN-105 (sham + CN-105 0.05 mg/kg iv): 7.8E − 03
Tlr1 ΔCt value, S-CN-105 (sham + CN-105 0.05 mg/kg iv): 1.0E − 03
Tlr2 ΔCt value, S-CN-105 (sham + CN-105 0.05 mg/kg iv): 1.3E − 03
Tlr3 ΔCt value, S-CN-105 (sham + CN-105 0.05 mg/kg iv): 2.3E − 02
Tlr4 ΔCt value, S-CN-105 (sham + CN-105 0.05 mg/kg iv): 3.5E − 03
Tlr5 ΔCt value, S-CN-105 (sham + CN-105 0.05 mg/kg iv): 6.3E − 04
Tlr6 ΔCt value, S-CN-105 (sham + CN-105 0.05 mg/kg iv): 6.2E − 04
Tlr7 ΔCt value, S-CN-105 (sham + CN-105 0.05 mg/kg iv): 2.6E − 03
Tnf ΔCt value, S-CN-105 (sham + CN-105 0.05 mg/kg iv): 3.5E − 05
Tnfsf14 ΔCt value, S-CN-105 (sham + CN-105 0.05 mg/kg iv): 1.3E − 04
Tollip ΔCt value, S-CN-105 (sham + CN-105 0.05 mg/kg iv): 3.2E − 01
Bcl6 fold change S-CN-105/S-v (sham CN-105 vs sham vehicle): 1.3
C3ar1 fold change S-CN-105/S-v (sham CN-105 vs sham vehicle): 1.2
C3 fold change S-CN-105/S-v (sham CN-105 vs sham vehicle): 1.7
C4b fold change S-CN-105/S-v (sham CN-105 vs sham vehicle): 2.0
Ccl2 fold change S-CN-105/S-v (sham CN-105 vs sham vehicle): 1.4
Ccl3 fold change S-CN-105/S-v (sham CN-105 vs sham vehicle): 1.6
Ccl4 fold change S-CN-105/S-v (sham CN-105 vs sham vehicle): 1.0
Ccl5 fold change S-CN-105/S-v (sham CN-105 vs sham vehicle): 1.2
Ccl7 fold change S-CN-105/S-v (sham CN-105 vs sham vehicle): 1.3
Ccl8 fold change S-CN-105/S-v (sham CN-105 vs sham vehicle): 2.8
Ccl11 fold change S-CN-105/S-v (sham CN-105 vs sham vehicle): 3.2
Ccl12 fold change S-CN-105/S-v (sham CN-105 vs sham vehicle): 1.8
Ccl17 fold change S-CN-105/S-v (sham CN-105 vs sham vehicle): 1.6
Ccl19 fold change S-CN-105/S-v (sham CN-105 vs sham vehicle): 1.5
Ccl20 fold change S-CN-105/S-v (sham CN-105 vs sham vehicle): 4.4
Ccl22 fold change S-CN-105/S-v (sham CN-105 vs sham vehicle): 3.1
Ccl24 fold change S-CN-105/S-v (sham CN-105 vs sham vehicle): 3.0
Ccl25 fold change S-CN-105/S-v (sham CN-105 vs sham vehicle): 2.6
Ccr1 fold change S-CN-105/S-v (sham CN-105 vs sham vehicle): −1.1
Ccr2 fold change S-CN-105/S-v (sham CN-105 vs sham vehicle): 2.1
Ccr3 fold change S-CN-105/S-v (sham CN-105 vs sham vehicle): 1.2
Ccr4 fold change S-CN-105/S-v (sham CN-105 vs sham vehicle): 1.5
Ccr7 fold change S-CN-105/S-v (sham CN-105 vs sham vehicle): 1.8
Cd40 fold change S-CN-105/S-v (sham CN-105 vs sham vehicle): 1.5
Cebpb fold change S-CN-105/S-v (sham CN-105 vs sham vehicle): 1.6
Csf1 fold change S-CN-105/S-v (sham CN-105 vs sham vehicle): 1.7
Cxcl1 fold change S-CN-105/S-v (sham CN-105 vs sham vehicle): 2.7
Cxcl2 fold change S-CN-105/S-v (sham CN-105 vs sham vehicle): 4.2
Cxcl3 fold change S-CN-105/S-v (sham CN-105 vs sham vehicle): 0.8
Cxcl5 fold change S-CN-105/S-v (sham CN-105 vs sham vehicle): 1.7
Cxcl9 fold change S-CN-105/S-v (sham CN-105 vs sham vehicle): 1.5
Cxcl10 fold change S-CN-105/S-v (sham CN-105 vs sham vehicle): 2.1
Cxcl11 fold change S-CN-105/S-v (sham CN-105 vs sham vehicle): 3.8
Cxcr4 fold change S-CN-105/S-v (sham CN-105 vs sham vehicle): 1.5
Fasl fold change S-CN-105/S-v (sham CN-105 vs sham vehicle): 0.9
Flt3l fold change S-CN-105/S-v (sham CN-105 vs sham vehicle): 1.5
Fos fold change S-CN-105/S-v (sham CN-105 vs sham vehicle): 1.6
Hdac4 fold change S-CN-105/S-v (sham CN-105 vs sham vehicle): 1.5
Ifng fold change S-CN-105/S-v (sham CN-105 vs sham vehicle): 0.8
Il1a fold change S-CN-105/S-v (sham CN-105 vs sham vehicle): 1.4
Il1b fold change S-CN-105/S-v (sham CN-105 vs sham vehicle): 1.8
Il1r1 fold change S-CN-105/S-v (sham CN-105 vs sham vehicle): 2.6
Il1rap fold change S-CN-105/S-v (sham CN-105 vs sham vehicle): 1.5
Il6 fold change S-CN-105/S-v (sham CN-105 vs sham vehicle): −1.3
Il6ra fold change S-CN-105/S-v (sham CN-105 vs sham vehicle): 1.5
Il7 fold change S-CN-105/S-v (sham CN-105 vs sham vehicle): 3.1
Il8rb fold change S-CN-105/S-v (sham CN-105 vs sham vehicle): 7.3
Il10 fold change S-CN-105/S-v (sham CN-105 vs sham vehicle): 5.7
Il10rb fold change S-CN-105/S-v (sham CN-105 vs sham vehicle): 2.0
Il18 fold change S-CN-105/S-v (sham CN-105 vs sham vehicle): 2.0
Il22 fold change S-CN-105/S-v (sham CN-105 vs sham vehicle): 10.8
Il22ra2 fold change S-CN-105/S-v (sham CN-105 vs sham vehicle): 4.8
Il23a fold change S-CN-105/S-v (sham CN-105 vs sham vehicle): 3.0
Il23r fold change S-CN-105/S-v (sham CN-105 vs sham vehicle): 1.4
Itgb2 fold change S-CN-105/S-v (sham CN-105 vs sham vehicle): 2.5
Lta fold change S-CN-105/S-v (sham CN-105 vs sham vehicle): 2.3
Ltb fold change S-CN-105/S-v (sham CN-105 vs sham vehicle): 2.0
Ly96 fold change S-CN-105/S-v (sham CN-105 vs sham vehicle): 1.9
Myd88 fold change S-CN-105/S-v (sham CN-105 vs sham vehicle): 1.5
Nfatc3 fold change S-CN-105/S-v (sham CN-105 vs sham vehicle): 2.4
Nfkb1 fold change S-CN-105/S-v (sham CN-105 vs sham vehicle): 1.8
Nos2 fold change S-CN-105/S-v (sham CN-105 vs sham vehicle): 1.0
Nr3c1 fold change S-CN-105/S-v (sham CN-105 vs sham vehicle): 2.0
Ripk2 fold change S-CN-105/S-v (sham CN-105 vs sham vehicle): 1.5
Tirap fold change S-CN-105/S-v (sham CN-105 vs sham vehicle): 2.1
Tlr1 fold change S-CN-105/S-v (sham CN-105 vs sham vehicle): 2.2
Tlr2 fold change S-CN-105/S-v (sham CN-105 vs sham vehicle): 1.4
Tlr3 fold change S-CN-105/S-v (sham CN-105 vs sham vehicle): 1.6
Tlr4 fold change S-CN-105/S-v (sham CN-105 vs sham vehicle): 1.1
Tlr5 fold change S-CN-105/S-v (sham CN-105 vs sham vehicle): 0.9
Tlr6 fold change S-CN-105/S-v (sham CN-105 vs sham vehicle): 1.3
Tlr7 fold change S-CN-105/S-v (sham CN-105 vs sham vehicle): 1.6
Tnf fold change S-CN-105/S-v (sham CN-105 vs sham vehicle): 1.3
Tnfsf14 fold change S-CN-105/S-v (sham CN-105 vs sham vehicle): 5.2
Tollip fold change S-CN-105/S-v (sham CN-105 vs sham vehicle): 1.9
downregulation of gene expression, sham CN-105 vs sham vehicle (sham mice, 0.05 mg/kg): No downregulation of gene expression was observed
